Data from patent US20240197712A1, “TGF-BETA INHIBITION FOR IMMUNODEFICIENCY VIRUS REACTIVATION FROM LATENCY, ENHANCEMENT OF IMMUNODEFICIENCY VIRUS-SPECIFIC RESPONSES AND IMMUNODEFICIENCY VIRUS CURE” (Northwestern University, priority 2022, published 2024).

Assays:
Format in all cases: in vivo, rhesus macaques
SIV-env = experiment: Anti-envelope antibody titers (ELISA); details: in 3 of the 7 macaques
Description: 96-well plates were coated with the SIV gp130 Recombinant protein 595 (AIDS reagents program, Division of AIDS, NIAID, NIH at 1 μg/ml in coating carbonate buffer 2 hours at room temperature (RT). After washing the plates 4 times with washing buffer, the plates were incubated in blocking buffer (2% BSA in PBS) overnight. Plates were washed and dilutions of test sera or control sera were added to the plate starting at 1:50. Sera were incubated at 37° C. for 30′ and plate washed and detected with anti-Rhesus IgG HRP (NHPRR) 30′ at 37° C. After washing and substrate incubation at RT for 30′ plates were read at 450/650 nm.

SIVmac239M2 = experiment: Cell-associated vDNA in PBMC, colorectal biopsies and lymph nodes
Description: Blood was collected in EDTA tubes and plasma was separated by density gradient centrifugation and used for the determination of plasma VL by SIVgag qRT-PCR at NIRC or at Leidos (Quantitative Molecular Diagnostics Core, AIDS and Cancer Virus Program Frederick National Laboratory). Tissue VL from snap frozen PBMC pellets, colorectal biopsies and LN FNA were performed as described in (77). SIV-TILDA was performed on freshly stored PBMC before cycle 1 and at the end of cycle 4 of galunisertib by Accelevir, Baltimore, MD.

[1] = Plasma cytokines and chemokines (MSD 24-plex)
Description: Cytokines in plasma (at 1:2 dilution) were measured using the NHP Cytokine 24-Plex kit by Meso Scale Diagnostics (MSD) according to manufacturer instructions. Frozen PBMC collected at week 6 post-infection (pre-ART), right before the first galunisertib administration (BC1), at the end of cycle 1 (AC1) and at the end of cycle 3 (AC3) were thawed in AIM V medium (ThermoFisher) with benzonase (Sigma) and plated on a FluoroSpot (CTL) plate pre-activated with 70% Ethanol and IFN-γ, TNF-α and IL-2 capture solution. Gag, pol, and env 15-mer peptides (NIH AIDS Reagents program) were prepared at two times the final concentration of 2.5 μg/ml with co-stimulatory reagents anti-CD28 10 μg/ml and anti-CD49d 10 μg/ml and added to the cells in CTL-Test™ Medium. Parallel positive […] control of PMA (20 ng/ml) and ionomycin (200 ng/mL) or mock DMSO solution was also plated with the stimulatory reagents. PBMCs were added at 300,000 cells per well. After 24 hrs, the plate was washed, and incubated with detection and tertiary solutions and shipped to CTL for scanning and QC.

Cc1cccc(-c2nn3c(c2-c2ccnc4ccc(C(N)=O)cc24)CCC3)n1 [galunisertib, Galunisertib]
increase in the titer of SIV-env specific antibodies (SIV-env): 0.5 to 1 Log
cell-associated SIV DNA in lymph nodes, gut and PBMC (SIVmac239M2; 8 macaques, four 2-week cycles): Half to 1 Log decrease
CA-vDNA decrease in gut, median (SIVmac239M2; BC1 (week 35 pi) vs AC4 (week 49 pi)): 0.77 folds
CA-vDNA decrease in PBMC, range (SIVmac239M2; BC1 vs AC3): 0.28-0.88 folds
CA-vDNA decrease in gut, range (SIVmac239M2; BC1 vs AC4): 0.33-0.94 folds
CA-vDNA decrease in PBMC, median (SIVmac239M2; BC1 vs end of cycle 3 (AC3)): 0.58 folds
cell-associated viral DNA in lymph nodes and colorectal biopsies (SIVmac239M2; Example 5, end of cycle 4 vs before Gal): decreased by over a Log
CA-vDNA decrease in LN, median (SIVmac239M2; right axillary LN, BC1 vs AC4): 0.93 folds
CA-vDNA decrease in LN, range (SIVmac239M2; right axillary LN, BC1 vs AC4): 0.33-0.98 folds
concentrations of inflammatory chemokines and cytokines in plasma ([1]; before and after first 2 cycles and end of last cycle): no changes
IL-10 in plasma ([1]; end of the last cycle vs before treatment): small increase
